Measurements as given in ChEMBL document CHEMBL4393671, “Design of a Cyclin G Associated Kinase (GAK)/Epidermal Growth Factor Receptor (EGFR) Inhibitor Set to Interrogate the Relationship of EGFR and GAK in Chordoma” (J Med Chem, 2019).
Active and inactive are the calls of the source. The calls are words filed in the database; no cut-off is given here.

Legend:
cells [1] = assay type: functional, cell-based; details: Homo sapiens, UCH1, 72 h
Description: Antiproliferative activity against human UCH1 cells measured after 72 hrs by alamar blue assay

cells [2] = assay type: functional, cell-based; details: Homo sapiens, UCH2, 72 h
Description: Antiproliferative activity against human UCH2 cells measured after 72 hrs by alamar blue assay

[3] = target: T1, Epidermal growth factor receptor (Homo sapiens, UniProt P00533); assay type: cell-based;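 on IC50: human A431 cells pretreated 90 min, then EGF stimulated, sandwich ELISA measured decrease in EGF-induced receptor autophosphorylation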;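 on Kd: KINOMEscan competition binding with recombinant partial wild-type human EGFR (residues R669–V1011) produced in bacteria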
T1 sequence (P00533 whole entry, the tested form may be a part): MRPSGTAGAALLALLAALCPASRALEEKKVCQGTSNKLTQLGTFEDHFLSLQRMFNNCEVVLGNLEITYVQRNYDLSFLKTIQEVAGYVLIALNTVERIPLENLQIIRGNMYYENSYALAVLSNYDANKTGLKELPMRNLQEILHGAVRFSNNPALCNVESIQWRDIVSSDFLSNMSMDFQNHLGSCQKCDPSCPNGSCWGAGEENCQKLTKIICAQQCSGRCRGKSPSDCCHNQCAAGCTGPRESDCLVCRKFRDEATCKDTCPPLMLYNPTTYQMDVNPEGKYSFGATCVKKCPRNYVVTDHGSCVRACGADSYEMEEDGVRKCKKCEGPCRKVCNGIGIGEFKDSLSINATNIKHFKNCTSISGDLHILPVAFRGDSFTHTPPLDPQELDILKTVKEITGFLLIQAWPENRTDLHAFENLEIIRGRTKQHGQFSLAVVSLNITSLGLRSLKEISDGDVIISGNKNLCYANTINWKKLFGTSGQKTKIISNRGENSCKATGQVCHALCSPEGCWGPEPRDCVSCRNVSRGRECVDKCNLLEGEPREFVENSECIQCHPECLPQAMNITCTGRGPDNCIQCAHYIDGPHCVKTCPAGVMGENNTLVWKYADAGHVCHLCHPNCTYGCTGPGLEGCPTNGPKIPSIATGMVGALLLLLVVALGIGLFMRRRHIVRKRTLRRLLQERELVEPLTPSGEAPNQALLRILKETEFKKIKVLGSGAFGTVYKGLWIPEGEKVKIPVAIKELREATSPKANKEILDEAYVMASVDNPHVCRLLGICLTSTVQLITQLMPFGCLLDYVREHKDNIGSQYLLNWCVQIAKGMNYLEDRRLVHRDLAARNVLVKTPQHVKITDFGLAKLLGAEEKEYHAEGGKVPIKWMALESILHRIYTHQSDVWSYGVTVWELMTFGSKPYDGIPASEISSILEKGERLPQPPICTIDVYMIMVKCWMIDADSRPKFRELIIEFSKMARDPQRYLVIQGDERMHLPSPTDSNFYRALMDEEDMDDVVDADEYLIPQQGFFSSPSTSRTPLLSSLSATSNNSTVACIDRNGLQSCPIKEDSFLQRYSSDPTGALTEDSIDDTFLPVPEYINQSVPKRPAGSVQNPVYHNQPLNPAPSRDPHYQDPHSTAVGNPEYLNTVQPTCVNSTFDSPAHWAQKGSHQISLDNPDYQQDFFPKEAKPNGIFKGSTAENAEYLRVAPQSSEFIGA
Description: Inhibition of EGFR in human A431 cells assessed as reduction in EGF-stimulated EGFR autophosphorylation preincuabted for 90 mins followed by EGF-stimulation by sandwich-ELISA

[4] = target: T2, Cyclin-G-associated kinase (Homo sapiens) (UniProt O14976); assay: Inhibition of tracer 5 binding to human N-terminal nano luciferase-fused GAK expressed in HEK293 cells at 5 uM measured after 2 hrs by nanoBRET assay relative to control; assay type: cell-based
T2 sequence (whole entry): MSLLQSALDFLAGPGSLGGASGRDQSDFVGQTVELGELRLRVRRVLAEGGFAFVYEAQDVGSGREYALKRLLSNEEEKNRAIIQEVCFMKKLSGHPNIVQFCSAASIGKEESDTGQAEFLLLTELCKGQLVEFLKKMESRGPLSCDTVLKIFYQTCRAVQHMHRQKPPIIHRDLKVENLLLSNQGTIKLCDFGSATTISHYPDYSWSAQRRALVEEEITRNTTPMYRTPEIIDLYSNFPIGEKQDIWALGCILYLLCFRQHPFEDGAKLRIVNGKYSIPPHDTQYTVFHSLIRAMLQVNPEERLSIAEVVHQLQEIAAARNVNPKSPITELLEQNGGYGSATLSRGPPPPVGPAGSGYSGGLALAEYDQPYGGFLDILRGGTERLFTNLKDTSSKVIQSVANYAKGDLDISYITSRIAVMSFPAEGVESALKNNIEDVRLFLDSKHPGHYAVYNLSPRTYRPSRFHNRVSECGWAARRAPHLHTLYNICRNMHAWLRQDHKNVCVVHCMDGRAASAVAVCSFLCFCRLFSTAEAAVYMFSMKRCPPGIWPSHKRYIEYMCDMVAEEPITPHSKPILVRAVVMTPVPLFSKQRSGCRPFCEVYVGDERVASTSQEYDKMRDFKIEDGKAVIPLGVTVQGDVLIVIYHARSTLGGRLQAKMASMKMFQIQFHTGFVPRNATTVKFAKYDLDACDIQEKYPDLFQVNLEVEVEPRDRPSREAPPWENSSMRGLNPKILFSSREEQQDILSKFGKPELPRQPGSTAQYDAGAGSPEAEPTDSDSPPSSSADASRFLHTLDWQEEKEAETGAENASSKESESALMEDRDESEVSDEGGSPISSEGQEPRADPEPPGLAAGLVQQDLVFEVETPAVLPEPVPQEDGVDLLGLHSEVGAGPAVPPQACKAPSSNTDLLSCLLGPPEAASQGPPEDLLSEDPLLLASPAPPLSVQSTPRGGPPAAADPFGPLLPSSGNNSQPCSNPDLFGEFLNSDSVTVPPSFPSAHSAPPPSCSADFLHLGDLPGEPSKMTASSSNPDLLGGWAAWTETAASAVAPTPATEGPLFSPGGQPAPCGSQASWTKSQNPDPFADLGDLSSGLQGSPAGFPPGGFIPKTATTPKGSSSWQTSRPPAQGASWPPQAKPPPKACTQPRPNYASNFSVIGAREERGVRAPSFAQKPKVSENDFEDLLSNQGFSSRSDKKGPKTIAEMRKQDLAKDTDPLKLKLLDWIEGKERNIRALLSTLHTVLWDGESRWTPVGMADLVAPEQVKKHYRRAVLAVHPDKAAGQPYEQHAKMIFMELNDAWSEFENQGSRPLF

cells [5] = assay type: ADME, cell-based; details: Homo sapiens, WS1, 72 h
Description: Cytotoxicity against human WS1 cells measured after 72 hrs by alamar blue assay

[6] = target: T1, Epidermal growth factor receptor
Description: Binding affinity to wild-type human partial length EGFR (R669 to V1011 residues) expressed in bacterial expression system by Kinomescan method

[7] = target: T3, Cyclin-G-associated kinase (Homo sapiens, UniProt O14976); assay: Binding affinity to wild-type human partial length GAK (G13 to Y338 residues) expressed in bacterial expression system by Kinomescan method
T3 sequence (O14976 whole entry): T2 sequence (whole entry)

[8] = target: T3, Cyclin-G-associated kinase; assay: Inhibition of tracer 5 binding to human N-terminal nano luciferase-fused GAK expressed in HEK293 cells measured after 2 hrs by nanoBRET assay; assay type: cell-based
[9] = target: T1, Epidermal growth factor receptor; assay: Binding affinity to wild-type human partial length EGFR (R669 to V1011 residues) expressed in bacterial expression system at 1 uM by Kinomescan method relative to control
[10] = target: T1, Epidermal growth factor receptor; assay: Inhibition of EGFR in human UCH1 cells assessed as reduction in EGF-induced EGFR phosphorylation at Y1068 residue at 10 uM preincubated for 4 hrs followed by EGF--stimulation and measured after 15 mins by Western blot analysis relative to control; assay type: cell-based
cells [11] = assay type: functional, cell-based; details: Homo sapiens, 72 h
Description: Antiproliferative activity against human UCH7 cells measured after 72 hrs by alamar blue assay

cells [12] = assay type: functional, cell-based; details: Homo sapiens, 72 h; remark: listed apart in the source
Description: Antiproliferative activity against human UMCHOR1 cells measured after 72 hrs by alamar blue assay

cells [13] = assay type: functional, cell-based; details: Homo sapiens, 72 h; remark: listed apart in the source
Description: Antiproliferative activity against human CH22 cells measured after 72 hrs by alamar blue assay

cells [14] = assay type: functional, cell-based; details: Homo sapiens, 72 h; remark: listed apart in the source
Description: Antiproliferative activity against human UCH12 cells measured after 72 hrs by alamar blue assay

cells [15] = assay type: functional, cell-based; details: Homo sapiens, 72 h; remark: listed apart in the source
Description: Antiproliferative activity against human UCH14 cells measured after 72 hrs by alamar blue assay

[16] = Effect on total EGFR expression in human UCH1 cells at 1 to 10 uM measured after 4 hrs by Western blot analysis; assay type: ADME, cell-based
[17] = Effect on total EGFR expression in human UCH2 cells at 1 to 10 uM measured after 4 hrs by Western blot analysis; assay type: ADME, cell-based
[18] = target: T1, Epidermal growth factor receptor; assay: Inhibition of EGFR in human UCH1 cells assessed as reduction in EGF-induced EGFR phosphorylation at Y1068 residue at 1 uM preincubated for 4 hrs followed by EGF--stimulation and measured after 15 mins by Western blot analysis relative to control; assay type: cell-based
[19] = target: T1, Epidermal growth factor receptor; assay: Inhibition of EGFR in human UCH2 cells assessed as reduction in EGF-induced EGFR phosphorylation at Y1068 residue at 10 uM preincubated for 4 hrs followed by EGF--stimulation and measured after 15 mins by Western blot analysis relative to control; assay type: cell-based
[20] = target: T1, Epidermal growth factor receptor; assay: Inhibition of EGFR in human UCH2 cells assessed as reduction in EGF-induced EGFR phosphorylation at Y1068 residue at 1 uM preincubated for 4 hrs followed by EGF--stimulation and measured after 15 mins by Western blot analysis relative to control; assay type: cell-based
[21] = target: T2, Cyclin-G-associated kinase (Homo sapiens); assay: Binding affinity to GAK in human SUM159 cell lysates by multiplexed inhibitor bead profiling-based LC-MS/MS analysis; assay type: subcellular; details: Lysate
[22] = target: Pyruvate kinase PKM (Homo sapiens) (UniProt P14618); assay: Binding affinity to PKM in human SUM159 cell lysates by multiplexed inhibitor bead profiling-based LC-MS/MS analysis; assay type: subcellular; details: Lysate
Sequence of Pyruvate kinase PKM (Homo sapiens) (P14618 2-531 limits assumed): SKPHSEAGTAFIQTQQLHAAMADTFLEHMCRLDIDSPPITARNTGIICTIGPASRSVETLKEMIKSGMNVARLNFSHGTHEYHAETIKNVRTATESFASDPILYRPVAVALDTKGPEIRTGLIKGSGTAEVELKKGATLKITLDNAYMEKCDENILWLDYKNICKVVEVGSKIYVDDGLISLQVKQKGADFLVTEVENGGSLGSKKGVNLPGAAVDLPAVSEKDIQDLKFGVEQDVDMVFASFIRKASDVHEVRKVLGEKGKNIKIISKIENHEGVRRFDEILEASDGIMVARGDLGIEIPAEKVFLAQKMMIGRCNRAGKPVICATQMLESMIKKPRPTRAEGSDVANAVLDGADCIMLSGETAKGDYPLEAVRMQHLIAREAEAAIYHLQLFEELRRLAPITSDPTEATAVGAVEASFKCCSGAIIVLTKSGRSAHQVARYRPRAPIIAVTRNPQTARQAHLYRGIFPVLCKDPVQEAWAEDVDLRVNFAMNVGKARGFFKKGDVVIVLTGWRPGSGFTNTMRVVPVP

[23] = target: Mitotic checkpoint serine/threonine-protein kinase BUB1 (Homo sapiens) (UniProt O43683); assay: Binding affinity to BUB1 in human SUM159 cell lysates by multiplexed inhibitor bead profiling-based LC-MS/MS analysis; assay type: subcellular; details: Lysate
Sequence of Mitotic checkpoint serine/threonine-protein kinase BUB1 (Homo sapiens) (O43683 whole entry, looked up): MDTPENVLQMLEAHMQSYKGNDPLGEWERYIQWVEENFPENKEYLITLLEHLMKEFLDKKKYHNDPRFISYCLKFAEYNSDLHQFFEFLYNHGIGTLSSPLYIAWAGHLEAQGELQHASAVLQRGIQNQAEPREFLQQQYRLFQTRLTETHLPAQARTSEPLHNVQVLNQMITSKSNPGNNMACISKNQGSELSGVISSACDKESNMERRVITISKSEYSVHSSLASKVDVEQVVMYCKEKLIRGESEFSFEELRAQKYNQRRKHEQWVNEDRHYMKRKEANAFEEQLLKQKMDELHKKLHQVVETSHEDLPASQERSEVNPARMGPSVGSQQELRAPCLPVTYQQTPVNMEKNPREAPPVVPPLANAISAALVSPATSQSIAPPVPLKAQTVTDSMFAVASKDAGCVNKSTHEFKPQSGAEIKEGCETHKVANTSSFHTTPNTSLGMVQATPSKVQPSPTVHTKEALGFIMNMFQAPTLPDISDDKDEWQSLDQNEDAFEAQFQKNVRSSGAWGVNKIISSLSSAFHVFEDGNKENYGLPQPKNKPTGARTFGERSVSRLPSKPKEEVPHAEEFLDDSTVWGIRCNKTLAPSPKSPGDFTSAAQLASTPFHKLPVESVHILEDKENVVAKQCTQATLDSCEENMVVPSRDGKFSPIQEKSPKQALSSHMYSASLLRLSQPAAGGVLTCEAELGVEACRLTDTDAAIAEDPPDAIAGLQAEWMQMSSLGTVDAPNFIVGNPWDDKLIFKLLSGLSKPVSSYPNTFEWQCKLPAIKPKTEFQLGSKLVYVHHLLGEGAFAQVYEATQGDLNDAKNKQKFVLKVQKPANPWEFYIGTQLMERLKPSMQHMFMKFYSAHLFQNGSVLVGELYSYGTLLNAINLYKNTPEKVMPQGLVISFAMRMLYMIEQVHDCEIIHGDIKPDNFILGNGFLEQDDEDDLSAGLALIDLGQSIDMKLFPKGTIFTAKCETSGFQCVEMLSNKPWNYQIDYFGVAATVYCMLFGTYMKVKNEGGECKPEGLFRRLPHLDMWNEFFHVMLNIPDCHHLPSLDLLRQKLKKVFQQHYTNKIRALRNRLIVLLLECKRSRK

| IC50 (cells [1]) [µM] | IC50 (cells [2]) [µM] | IC50 [3] [µM] | IC50 (cells [5]) [µM] | Kd [6] [µM] | Kd [7] [µM] | IC50 [8] [µM] | Structure (SMILES) | other results |
| --- | --- | --- | --- | --- | --- | --- | --- | --- |
| > 50 | > 50 | 2.2 | > 50 |  |  |  | COc1cc(N(C)c2ccnc3ccc(C(F)(F)F)cc23)cc(OC)c1OC | inhibition [4]: 7% |
| 17 | > 50 | 0.061 | > 50 | 0.0018 | 0.0026 | 0.031 | C#Cc1cccc(Nc2c(C#N)cnc3cc(OC)c(OC)cc23)c1 |  |
| 1 | 4.2 |  |  |  |  |  | COc1cc2/c(=N/c3ccc(Br)cc3F)nc[nH]c2cc1OCC1CCN(C)CC1 [VANDETANIB] |  |
| 0.08 | 17 |  |  |  |  |  | C=CC(=O)Nc1cc2c(Nc3ccc(F)c(Cl)c3)ncnc2cc1OCCCN1CCOCC1 [CANERTINIB] |  |
| > 50 | > 50 | > 50 | 11 |  |  |  | COc1cc(Nc2ccnc3ccc(Br)cc23)cc(OC)c1OC | Activity [9]: < 50% |
| 0.1 | 6.4 |  |  |  |  |  | CN(C)C/C=C/C(=O)Nc1cc2c(Nc3ccc(F)c(Cl)c3)ncnc2cc1O[C@H]1CCOC1 [AFATINIB] |  |
| 0.66 | 26 |  | 9.7 |  |  | 0.26 | COc1cc2ncnc(Nc3cccc(Br)c3)c2cc1OC |  |
| 0.15 | 1.1 |  |  |  |  |  | COc1cc2c(Nc3ccc(Cl)c(Cl)c3F)ncnc2cc1OC[C@@H]1C[C@@H]2CN(C)C[C@@H]2C1 [TESEVATINIB] |  |
| 50 | > 50 | > 50 | 45 | 6.1 | 0.19 |  | COc1cc(Nc2ncnc3ccc(C(F)(F)F)cc23)cc(OC)c1OC | inhibition [4]: 60% |
| 4.3 | 28 |  |  |  |  |  | CN1CCN(CCOc2cc(OC3CCOCC3)c3c(Nc4c(Cl)ccc5c4OCO5)ncnc3c2)CC1 [SARACATINIB] |  |
| 25 | > 50 | 2.4 | > 50 | 0.053 | 0.15 | 2.6 | COCCOc1cc2ncnc(Nc3cc(OC)c(OC)c(OC)c3)c2cc1OCCOC |  |
| 7.6 | 16 | 0.34 | 12 | 0.39 | 1.2 |  | C#Cc1cccc(Nc2ccnc3cc(OCCOC)c(OCCOC)cc23)c1 |  |
| 7.3 | > 10 |  | 28 |  | 0.01 | 0.35 | COc1cc2ncnc(Nc3cc(OC)c(OC)c(OC)c3)c2cc1OC |  |
| 0.05 | 2.7 |  |  |  |  |  | COc1cc2ncnc(Nc3ccc(F)c(Cl)c3)c2cc1NC(=O)/C=C/CN1CCCCC1 [DACOMITINIB ANHYDROUS] |  |
| 0.42 | 5.7 |  |  |  |  |  | CNC(=O)CN1CCC(Oc2cc3c(Nc4cccc(Cl)c4F)ncnc3cc2OC)CC1 [SAPITINIB] |  |
| > 50 | 30 | > 50 | > 50 |  |  |  | CC(C)(C)S(=O)(=O)c1cc2c(Nc3ccc4scnc4c3)ncnc2cc1OCCO | inhibition [4]: 0% |
| 0.11 | 8.1 |  |  |  |  |  | C=CC(=O)N1CCC(Oc2cc3c(Nc4ccc(Cl)c(Cl)c4F)ncnc3cc2OC)CC1 [POZIOTINIB] |  |
| > 50 | 33 | > 50 | 21 |  |  |  | COc1cc(Nc2ccnc3ccc(C(F)(F)F)cc23)cc(OC)c1OC | Activity [9]: < 50% |
| 0.09 | 1.6 |  |  |  |  |  | CCOc1cc2ncc(C#N)c(Nc3ccc(F)c(Cl)c3)c2cc1NC(=O)/C=C/CN(C)C [PELITINIB] |  |
| 11 | > 10 | 7.1 | > 50 | 0.0074 | 0.00042 | 0.0024 | COc1cc2ncc(C#N)c(Nc3cc(OC)c(OC)c(OC)c3)c2cc1OC |  |
| 8.8 | > 50 | 0.09 | 14 | 0.0024 | 0.012 | 0.13 | COc1cc2ncc(C#N)c(Nc3cccc(Br)c3)c2cc1OC |  |
| 5.5 | 2.4 |  |  |  |  |  | CCOc1cc2ncc(C#N)c(Nc3ccc(OCc4ccccn4)c(Cl)c3)c2cc1NC(=O)/C=C/CN(C)C [NERATINIB] |  |
| 0.92 | > 50 |  | 4.4 | 0.00055 | 0.0068 | 0.072 | C#Cc1cccc(Nc2ncnc3cc(OC)c(OC)cc23)c1 | inhibition [10]: 100%; IC50 (cells [11]): 23 µM; IC50 (cells [12]): 18 µM; IC50 (cells [13]): > 50 µM; IC50 (cells [14]): > 50 µM; IC50 (cells [15]): > 50 µM; Activity [16]: Non-Toxic; Activity [17]: Non-Toxic; inhibition [18]: 63.4%; inhibition [19]: 100%; inhibition [20]: 100%; Activity [21]: Active |
| 11 | 25 | 27 | 14 | 0.41 |  | 0.023 | COc1cc2nccc(Nc3cc(OC)c(OC)c(OC)c3)c2cc1OC | IC50 (cells [11]): 30 µM; IC50 (cells [12]): 24 µM; IC50 (cells [13]): 12 µM; IC50 (cells [14]): 33 µM; IC50 (cells [15]): 19 µM |
| 15 | 36 |  |  |  |  |  | COc1cc(Nc2c(C#N)cnc3cc(OCCCN4CCN(C)CC4)c(OC)cc23)c(Cl)cc1Cl [BOSUTINIB] |  |
| 37 | > 50 | > 50 | 49 |  |  |  | COc1cc(Nc2cc(C)nc3ccc(C(F)(F)F)cc23)cc(OC)c1OC | inhibition [4]: 0% |
| 3.6 | 7.9 |  | 2.9 |  | 0.24 | 0.51 | COc1cc2nccc(Nc3cccc(Br)c3)c2cc1OC | IC50 (cells [11]): > 50 µM; IC50 (cells [13]): 6.5 µM; IC50 (cells [14]): > 50 µM; IC50 (cells [15]): > 50 µM; Activity [21]: Active; Activity [22]: Active; Activity [23]: Active |
| 13 | > 50 | < 0.015 | > 10 | 0.0013 | 5 |  | COc1cc2ncnc(Nc3ccc(OCc4cccc(F)c4)c(Cl)c3)c2cc1OC | inhibition [4]: 12% |
